Data on 18 molecules can be found in PubChem BioAssay AID230 (DTP/NCI, 2004).

For the assay, the system named is C3H/He mice, Gardner lymphosarcoma 6C3HED ip, survival T/C. The assay can be described thus: NCI In Vivo Anticancer Drug Screen. Data for tumor model Lymphosarcoma Gardner 6C3HED (intraperitoneal) in C3H/He mice. As to conditions: higher = longer survival. As for the experimental part:
The antitumor activity of compounds was measured in mice bearing transplantable tumors. Survival or tumor size were measured and the results are expressed as the measurement made in the treated group (T) divided by the measurement made in the vehicle treated control group (C). The tumor model used in this assay is Lymphosarcoma Gardner 6C3HED (intraperitoneal) in C3H/He mice

Setting [1] is: endpoint: survival time, mean or median, dose: 12.5 mg/kg/injection, schedule: Q01DX010 (ip), vehicle: saline.
[2] abbreviates: endpoint: survival time, mean or median, dose: 50.0 mg/kg/injection, schedule: Q01DX010 (ip), vehicle: saline.
[3] abbreviates: endpoint: survival time, mean or median, dose: 4.0 mg/kg/injection, schedule: Q01DX010 (ip), vehicle: saline.
The mark [4] stands for this setting: endpoint: survival time, mean or median, dose: 32.0 mg/kg/injection, schedule: Q01DX010 (ip), vehicle: saline.
[5] abbreviates: endpoint: median survival time, dose: 1.0 mg/kg/injection, schedule: Q01DX009 (ip), vehicle: saline.
Setting [6] is: endpoint: median survival time, dose: 2.0 mg/kg/injection, schedule: Q01DX009 (ip), vehicle: saline.
The mark [7] stands for this setting: endpoint: median survival time, dose: 4.0 mg/kg/injection, schedule: Q01DX009 (ip), vehicle: saline.
Where [8] appears, read: endpoint: median survival time, dose: 8.0 mg/kg/injection, schedule: Q01DX009 (ip), vehicle: saline.
[9] abbreviates: endpoint: survival time, mean or median, dose: 31.3 mg/kg/injection, schedule: Q01DX010 (ip), vehicle: saline.
Setting [10] is: endpoint: survival time, mean or median, dose: 62.5 mg/kg/injection, schedule: Q01DX010 (ip), vehicle: saline.
[11] abbreviates: endpoint: survival time, mean or median, dose: 125.0 mg/kg/injection, schedule: Q01DX010 (ip), vehicle: saline.
Setting [12] is: endpoint: survival time, mean or median, dose: 0.75 mg/kg/injection, schedule: Q01DX010 (ip), vehicle: saline.
[13] abbreviates: endpoint: survival time, mean or median, dose: 1.5 mg/kg/injection, schedule: Q01DX010 (ip), vehicle: saline.
Where [14] appears, read: endpoint: survival time, mean or median, dose: 3.0 mg/kg/injection, schedule: Q01DX010 (ip), vehicle: saline.
Where [15] appears, read: endpoint: survival time, mean or median, dose: 6.0 mg/kg/injection, schedule: Q01DX010 (ip), vehicle: saline.
The mark [16] stands for this setting: endpoint: survival time, mean or median, dose: 25.0 mg/kg/injection, schedule: Q01DX010 (ip), vehicle: saline.
Where [17] appears, read: endpoint: survival time, mean or median, dose: 7.8 mg/kg/injection, schedule: Q01DX010 (ip), vehicle: saline.

Several values for one entry are separate records, joined by “and”; a condition that tells them apart may be missing. Equal entries are not always repeated. Toxic doses and inconclusive results are not listed.

For `O=P1(N(CCCl)CCCl)NCCCO1` (stereo unspecified), the T/C reads like this: (endpoint: median survival time, dose: 12.5 mg/kg/injection, schedule: Q01DX007 (ip), vehicle: saline) 116 % of control; (endpoint: median survival time, dose: 20.0 mg/kg/injection, schedule: Q01DX003 (ip), vehicle: saline) 163 % of control; (endpoint: median survival time, dose: 25.0 mg/kg/injection, schedule: Q01DX007 (ip), vehicle: saline) 116 % of control; (endpoint: median survival time, dose: 40.0 mg/kg/injection, schedule: Q01DX003 (ip), vehicle: saline) 209 % of control and 724 % of control; (endpoint: median survival time, dose: 80.0 mg/kg/injection, schedule: Q01DX003 (ip), vehicle: saline) 190 % of control and 722 % of control; (endpoint: survival time, mean or median, dose: 6.25 mg/kg/injection, schedule: Q01DX010 (ip), vehicle: saline) 100 % of control. Also, the T/C under setting [1] was 115 % of control and the T/C under setting [2] is 115 % of control.

Take `CCCCNc1ncnc2c1cnn2C`: the T/C is 90 % of control and 100 % of control under setting [3]; 95 % of control and 100 % of control (endpoint: survival time, mean or median, dose: 8.0 mg/kg/injection, schedule: Q01DX010 (ip), vehicle: saline); 90 % of control and 100 % of control (endpoint: survival time, mean or median, dose: 16.0 mg/kg/injection, schedule: Q01DX010 (ip), vehicle: saline); 90 % of control and 100 % of control under setting [4].

For the molecule `COc1cc(-c2ccc(Nc3ccccc3C(=O)O)c(OC)c2)ccc1N`, the T/C reads like this: (endpoint: survival time, mean or median, dose: 5.0 mg/kg/injection, schedule: Q01DX010 (ip), vehicle: saline) 110 % of control; (endpoint: survival time, mean or median, dose: 10.0 mg/kg/injection, schedule: Q01DX010 (ip), vehicle: saline) 96 % of control and 107 % of control; (endpoint: survival time, mean or median, dose: 20.0 mg/kg/injection, schedule: Q01DX010 (ip), vehicle: saline) 92 % of control; (endpoint: survival time, mean or median, dose: 40.0 mg/kg/injection, schedule: Q01DX010 (ip), vehicle: saline) 89 % of control and 96 % of control; (endpoint: survival time, mean or median, dose: 80.0 mg/kg/injection, schedule: Q01DX010 (ip), vehicle: saline) 89 % of control.

On to `Nc1nc([Se])c2ncn(C3OC(CO)C(O)C3O)c2n1` (stereo unspecified), for which the T/C is, setting by setting: under setting [5], 98 % of control; under setting [6], 103 % of control; under setting [7], 114 % of control; under setting [8], 107 % of control; (endpoint: median survival time, dose: 16.0 mg/kg/injection, schedule: Q01DX009 (ip), vehicle: saline) 99 % of control.

For `CCC1=C(c2ccc(OC)cc2)CCC(C(=O)O)C1C` (stereo unspecified), the T/C is 96 % of control (endpoint: survival time, mean or median, dose: 12.5 mg/kg/injection, schedule: Q01DX010 (sc), vehicle: steriod suspending solution); 107 % of control (endpoint: survival time, mean or median, dose: 25.0 mg/kg/injection, schedule: Q01DX010 (sc), vehicle: steriod suspending solution); 92 % of control (endpoint: survival time, mean or median, dose: 50.0 mg/kg/injection, schedule: Q01DX010 (sc), vehicle: steriod suspending solution); 100 % of control (endpoint: survival time, mean or median, dose: 100.0 mg/kg/injection, schedule: Q01DX010 (sc), vehicle: steriod suspending solution).

As to `COc1ccc2c(c1OC)C(=O)O[C@@H]2[C@H]1c2c(cc3c(c2OC)OCO3)CCN1C`, the T/C runs as follows: under setting [9], 90 % of control and 107 % of control; under setting [10], 100 % of control; under setting [11], 92 % of control.

As for `Nc1nc(=S)c2ncn(C3OC(CO)C(O)C3O)c2[nH]1` (stereo unspecified), the T/C was 114 % of control (endpoint: median survival time, dose: 0.5 mg/kg/injection, schedule: Q01DX009 (ip), vehicle: saline); 100 % of control under setting [5]; 105 % of control under setting [6]; 94 % of control under setting [7]; 96 % of control under setting [8]; 119 % of control (endpoint: survival time, mean or median, dose: 0.5 mg/kg/injection, schedule: Q01DX010 (ip), vehicle: saline). In addition, the T/C runs as follows: (endpoint: survival time, mean or median, dose: 1.0 mg/kg/injection, schedule: Q01DX010 (ip), vehicle: saline) 112 % of control and 115 % of control; (endpoint: survival time, mean or median, dose: 2.0 mg/kg/injection, schedule: Q01DX010 (ip), vehicle: saline) 100 % of control and 111 % of control; under setting [3], 96 % of control.

Take `O=CN(O)CC(=O)O`: the T/C is, setting by setting: under setting [10], 96 % of control; under setting [11], 89 % of control; (endpoint: survival time, mean or median, dose: 250.0 mg/kg/injection, schedule: Q01DX010 (ip), vehicle: saline) 107 % of control; (endpoint: survival time, mean or median, dose: 500.0 mg/kg/injection, schedule: Q01DX010 (ip), vehicle: saline) 100 % of control.

For the molecule `S=P(N1CC1)(N1CC1)N1CC1`, the T/C is, setting by setting: under setting [12], 100 % of control; under setting [13], 104 % of control and 105 % of control; under setting [14], 100 % of control and 110 % of control; under setting [15], 104 % of control and 115 % of control.

With `COS(C)(=O)=O`, the T/C is 119 % of control under setting [1], 300 % of control under setting [16] and 300 % of control under setting [2].

Consider `COc1ccc(/C=N/NC(N)=S)cc1`, for which the T/C by setting is: under setting [4], 96 % of control; (endpoint: survival time, mean or median, dose: 64.0 mg/kg/injection, schedule: Q01DX010 (ip), vehicle: saline) 92 % of control; (endpoint: survival time, mean or median, dose: 128.0 mg/kg/injection, schedule: Q01DX010 (ip), vehicle: saline) 100 % of control; (endpoint: survival time, mean or median, dose: 256.0 mg/kg/injection, schedule: Q01DX010 (ip), vehicle: saline) 96 % of control.

In the case of `COc1cc2c(c(OC)c1OC)-c1ccc(OC)c(=O)cc1[C@@H](NC(C)=O)CC2`, the T/C is, setting by setting: (endpoint: survival time, mean or median, dose: 0.01 mg/kg/injection, schedule: Q01DX010 (ip), vehicle: saline) 100 % of control; (endpoint: survival time, mean or median, dose: 0.02 mg/kg/injection, schedule: Q01DX010 (ip), vehicle: saline) 103 % of control; (endpoint: survival time, mean or median, dose: 0.04 mg/kg/injection, schedule: Q01DX010 (ip), vehicle: saline) 100 % of control; (endpoint: survival time, mean or median, dose: 0.08 mg/kg/injection, schedule: Q01DX010 (ip), vehicle: saline) 121 % of control.

With `O=c1[nH]cnc2c1ncn2C1OC(CO)C(O)C1O` (stereo unspecified), the T/C reads like this: (endpoint: median survival time, dose: 12.5 mg/kg/injection, schedule: Q01DX003 (ip), vehicle: saline) 90 % of control; (endpoint: median survival time, dose: 12.5 mg/kg/injection, schedule: Q12HX006 (ip), vehicle: saline) 101 % of control; (endpoint: median survival time, dose: 25.0 mg/kg/injection, schedule: Q01DX003 (ip), vehicle: saline) 95 % of control; (endpoint: median survival time, dose: 25.0 mg/kg/injection, schedule: Q12HX006 (ip), vehicle: saline) 104 % of control; (endpoint: median survival time, dose: 50.0 mg/kg/injection, schedule: Q01DX003 (ip), vehicle: saline) 100 % of control; (endpoint: median survival time, dose: 50.0 mg/kg/injection, schedule: Q12HX006 (ip), vehicle: saline) 106 % of control.

Take `NC(=O)CC(N)C(=O)O` (stereo unspecified): the T/C was 92 % of control (endpoint: median survival time, dose: 100.0 mg/kg/injection, schedule: Q01DX005 (ip), vehicle: water); 100 % of control (endpoint: median survival time, dose: 200.0 mg/kg/injection, schedule: Q01DX005 (ip), vehicle: water); 92 % of control (endpoint: median survival time, dose: 400.0 mg/kg/injection, schedule: Q01DX005 (ip), vehicle: water); 92 % of control (endpoint: median survival time, dose: 800.0 mg/kg/injection, schedule: Q01DX005 (ip), vehicle: water).

Take `Nc1c(Br)cc2c(c1Br)Cc1cc([N+](=O)[O-])ccc1-2`: the T/C under setting [17] is 92 % of control.

Regarding `CC(=O)Nc1ccc2nc3ccc(NC(C)=O)cc3[n+](-c3ccccc3)c2c1`, the T/C reads like this: under setting [1], 107 % of control; under setting [16], 107 % of control; (endpoint: survival time, mean or median, dose: 100.0 mg/kg/injection, schedule: Q01DX010 (ip), vehicle: saline) 89 % of control.

Turning to `N=C(N)c1ccc(Nc2ccc(C(=N)N)cc2)cc1`, the T/C was 103 % of control under setting [12]; 119 % of control under setting [13]; 107 % of control under setting [14]; 100 % of control and 103 % of control under setting [15]; 89 % of control (endpoint: survival time, mean or median, dose: 12.0 mg/kg/injection, schedule: Q01DX010 (ip), vehicle: saline); 96 % of control (endpoint: survival time, mean or median, dose: 24.0 mg/kg/injection, schedule: Q01DX010 (ip), vehicle: saline).

On to `CCN(CCNc1ccc(C)c2sc3cc(Cl)ccc3c(=O)c12)CC(C)O` (stereo unspecified), for which the T/C under setting [17] was 110 % of control; the T/C (endpoint: survival time, mean or median, dose: 15.6 mg/kg/injection, schedule: Q01DX010 (ip), vehicle: saline) is 100 % of control; the T/C under setting [9] was 100 % of control; the T/C under setting [10] was 88 % of control and 96 % of control.
